Measured values: ChEMBL document CHEMBL4311992, “Discovery of 3-(((9H-purin-6-yl)amino)methyl)-4,6-dimethylpyridin-2(1H)-one derivatives as novel tubulin polymerization inhibitors for treatment of cancer” (Eur J Med Chem, 2019)

Columns and labels:
[1] = target: Cyclin-dependent kinase 2/cyclin E1 (Homo sapiens) (UniProt P24864+P24941); experiment: Inhibition of recombinant full-length human CDK2/cyclinE assessed as residual activity at 10 uM using histone H1 as substrate measured after 40 mins in presence of [gamma33P]ATP by scintillation counting method; type: protein-complex assay
[2] = system: Tyrosine-protein kinase ABL1 (Homo sapiens), P00519 [H396P]; experiment: Inhibition of recombinant human ABL H396P mutant (27 to end residues) assessed as residual activity at 10 uM using EAIYAAPFAKKK as substrate measured after 40 mins in presence of [gamma33P]ATP by scintillation counting method
[3] = species on record: Homo sapiens; experiment: Inhibition of recombinant human Plk4 S34T mutant (1 to 273 residues) assessed as residual activity at 10 uM using casein as substrate measured after 40 mins in presence of [gamma33P]ATP by scintillation counting method
[4] = target: Ephrin type-A receptor 8 (Homo sapiens) (UniProt P29322); experiment: Inhibition of recombinant human EphA8 (615 to 911 residues) assessed as residual activity at 10 uM using KTFCGTPEYLAPEVRREPRILSEEEQEMFRDFDYIADWC as substrate measured after 40 mins in presence of [gamma33P]ATP by scintillation counting method
Chain of Ephrin type-A receptor 8 (Homo sapiens) (P29322 whole entry, the tested form may be a part): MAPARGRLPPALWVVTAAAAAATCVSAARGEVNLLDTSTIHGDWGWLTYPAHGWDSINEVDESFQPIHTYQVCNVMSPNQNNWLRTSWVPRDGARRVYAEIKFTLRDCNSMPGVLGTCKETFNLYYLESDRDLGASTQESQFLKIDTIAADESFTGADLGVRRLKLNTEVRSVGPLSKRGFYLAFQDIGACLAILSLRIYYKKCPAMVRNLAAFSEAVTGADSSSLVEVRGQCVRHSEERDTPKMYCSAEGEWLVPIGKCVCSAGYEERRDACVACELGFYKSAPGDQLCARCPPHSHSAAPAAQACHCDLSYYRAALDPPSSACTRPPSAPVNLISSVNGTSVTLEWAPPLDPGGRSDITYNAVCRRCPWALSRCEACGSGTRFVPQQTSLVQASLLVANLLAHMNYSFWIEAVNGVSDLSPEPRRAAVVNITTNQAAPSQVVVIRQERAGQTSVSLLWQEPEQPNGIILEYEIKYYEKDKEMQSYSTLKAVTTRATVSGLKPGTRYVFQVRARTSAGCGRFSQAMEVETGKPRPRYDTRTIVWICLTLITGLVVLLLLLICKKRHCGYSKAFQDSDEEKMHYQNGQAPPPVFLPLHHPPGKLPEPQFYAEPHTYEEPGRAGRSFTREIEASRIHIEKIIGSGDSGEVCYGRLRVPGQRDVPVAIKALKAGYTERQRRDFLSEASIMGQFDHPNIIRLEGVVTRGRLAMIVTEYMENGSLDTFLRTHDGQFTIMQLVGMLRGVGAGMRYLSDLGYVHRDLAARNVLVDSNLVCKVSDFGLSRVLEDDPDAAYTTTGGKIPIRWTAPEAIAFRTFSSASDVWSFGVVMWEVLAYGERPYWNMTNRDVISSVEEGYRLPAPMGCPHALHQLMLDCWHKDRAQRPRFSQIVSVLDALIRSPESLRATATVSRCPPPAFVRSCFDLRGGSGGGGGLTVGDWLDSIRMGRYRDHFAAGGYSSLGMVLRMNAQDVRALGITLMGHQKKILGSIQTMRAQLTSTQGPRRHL

[5] = target: Ribosomal protein S6 kinase alpha-4 (Homo sapiens) (UniProt O75676); experiment: Inhibition of recombinant human MSK2 (2 to end residues) assessed as residual activity at 10 uM using GRPRTSSFAEGKK as substrate measured after 40 mins in presence of [gamma33P]ATP by scintillation counting method
Chain of Ribosomal protein S6 kinase alpha-4 (Homo sapiens) (O75676 whole entry, looked up): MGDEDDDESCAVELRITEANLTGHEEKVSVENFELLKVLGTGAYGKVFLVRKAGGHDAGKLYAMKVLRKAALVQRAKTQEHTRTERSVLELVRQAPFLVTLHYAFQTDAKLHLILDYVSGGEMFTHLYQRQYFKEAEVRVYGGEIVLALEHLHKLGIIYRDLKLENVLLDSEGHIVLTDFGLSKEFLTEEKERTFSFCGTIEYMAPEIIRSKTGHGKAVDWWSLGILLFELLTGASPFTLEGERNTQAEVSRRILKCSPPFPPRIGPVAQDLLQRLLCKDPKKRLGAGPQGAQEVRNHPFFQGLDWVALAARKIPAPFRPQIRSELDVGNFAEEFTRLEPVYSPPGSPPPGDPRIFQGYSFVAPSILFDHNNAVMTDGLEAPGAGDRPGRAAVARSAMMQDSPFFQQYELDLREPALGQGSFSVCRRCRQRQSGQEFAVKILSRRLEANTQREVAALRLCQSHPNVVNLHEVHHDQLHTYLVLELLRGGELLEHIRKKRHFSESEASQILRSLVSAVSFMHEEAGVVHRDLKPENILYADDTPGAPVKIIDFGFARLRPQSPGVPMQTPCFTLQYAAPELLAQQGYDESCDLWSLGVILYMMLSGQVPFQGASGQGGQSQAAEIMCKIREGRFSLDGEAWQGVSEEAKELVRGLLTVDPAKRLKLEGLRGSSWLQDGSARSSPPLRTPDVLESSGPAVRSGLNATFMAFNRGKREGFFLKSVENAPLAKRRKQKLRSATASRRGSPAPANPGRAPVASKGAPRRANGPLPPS

[6] = target: Ribosomal protein S6 kinase alpha-6 (Homo sapiens) (UniProt Q9UK32); experiment: Inhibition of recombinant full-length human Rsk4 assessed as residual activity at 10 uM using LRRASLG as substrate measured after 40 mins in presence of [gamma33P]ATP by scintillation counting method
[7] = target: Serine/threonine-protein kinase DCLK2 (Homo sapiens) (UniProt Q8N568); experiment: Inhibition of recombinant human DCAMKL2 (376 to end residues) assessed as residual activity at 10 uM using KKLNRTLSFAEPG as substrate measured after 40 mins in presence of [gamma33P]ATP by scintillation counting method
[8] = Toxicity in nude BALB/c mouse assessed as change in AST level at 40 to 80 mg/kg, po once daily for 4 weeks measured post-last dose; type: organism-based; conditions: in vivo, 672 h
[9] = target: Casein kinase 2 (Homo sapiens) (UniProt P67870+P68400+P19784+Q8NEV1); experiment: Inhibition of human CK2 assessed as residual activity at 10 uM; type: protein assay
[10] = system: Hepatocyte growth factor receptor (Homo sapiens), P08581 [M1250T]; experiment: Inhibition of recombinant human MET A1209G/V1290L/M1268T mutant (974 to end residues) assessed as residual activity at 10 uM using KKKGQEEEYVFIE as substrate measured after 40 mins in presence of [gamma33P]ATP by scintillation counting method
[11] = system: HCT-116; experiment: Induction of apoptosis in human HCT116 cells assessed as early apoptotic cells at 50 nM measured after 48 hrs by Annexin V-FITC/propidium iodide staining-based flow cytometry (reference value: 0.418%); type: functional
[12] = target: Calcium/calmodulin-dependent protein kinase type 1G (Homo sapiens) (UniProt Q96NX5); experiment: Inhibition of human CaMK1gamma; parameters: scale not given: the % may be the effect or the level left
Chain of Calcium/calmodulin-dependent protein kinase type 1G (Homo sapiens) (Q96NX5 whole entry): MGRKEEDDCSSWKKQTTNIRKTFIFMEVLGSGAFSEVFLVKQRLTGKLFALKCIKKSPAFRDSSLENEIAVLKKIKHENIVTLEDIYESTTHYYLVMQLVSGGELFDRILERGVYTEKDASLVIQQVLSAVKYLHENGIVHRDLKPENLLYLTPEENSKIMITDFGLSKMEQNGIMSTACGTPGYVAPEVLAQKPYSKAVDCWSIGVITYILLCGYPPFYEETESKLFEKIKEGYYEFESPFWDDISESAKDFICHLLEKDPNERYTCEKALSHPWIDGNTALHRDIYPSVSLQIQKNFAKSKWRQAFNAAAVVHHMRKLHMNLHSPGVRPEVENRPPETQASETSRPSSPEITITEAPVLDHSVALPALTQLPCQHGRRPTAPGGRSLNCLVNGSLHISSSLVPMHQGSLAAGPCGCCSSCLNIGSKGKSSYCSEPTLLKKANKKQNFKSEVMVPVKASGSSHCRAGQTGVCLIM

[13] = target: Cyclin-dependent kinase 13/Cyclin-K (Homo sapiens) (UniProt Q14004+O75909); experiment: Inhibition of recombinant full length human CDK13/cyclinK assessed as residual activity at 10 uM using RSRSRSRSRSRSRSR as substrate measured after 120 mins in presence of [gamma33P]ATP by scintillation counting method; type: protein-complex assay
[14] = target: Serine/threonine-protein kinase tousled-like 2 (Homo sapiens) (UniProt Q86UE8); experiment: Inhibition of human TLK2 (387 to end residues) using casein as substrate measured after 40 mins in presence of [gamma33P]ATP by scintillation counting method; parameters: scale not given: the % may be the effect or the level left
Chain of Serine/threonine-protein kinase tousled-like 2 (Homo sapiens) (Q86UE8 whole entry, looked up): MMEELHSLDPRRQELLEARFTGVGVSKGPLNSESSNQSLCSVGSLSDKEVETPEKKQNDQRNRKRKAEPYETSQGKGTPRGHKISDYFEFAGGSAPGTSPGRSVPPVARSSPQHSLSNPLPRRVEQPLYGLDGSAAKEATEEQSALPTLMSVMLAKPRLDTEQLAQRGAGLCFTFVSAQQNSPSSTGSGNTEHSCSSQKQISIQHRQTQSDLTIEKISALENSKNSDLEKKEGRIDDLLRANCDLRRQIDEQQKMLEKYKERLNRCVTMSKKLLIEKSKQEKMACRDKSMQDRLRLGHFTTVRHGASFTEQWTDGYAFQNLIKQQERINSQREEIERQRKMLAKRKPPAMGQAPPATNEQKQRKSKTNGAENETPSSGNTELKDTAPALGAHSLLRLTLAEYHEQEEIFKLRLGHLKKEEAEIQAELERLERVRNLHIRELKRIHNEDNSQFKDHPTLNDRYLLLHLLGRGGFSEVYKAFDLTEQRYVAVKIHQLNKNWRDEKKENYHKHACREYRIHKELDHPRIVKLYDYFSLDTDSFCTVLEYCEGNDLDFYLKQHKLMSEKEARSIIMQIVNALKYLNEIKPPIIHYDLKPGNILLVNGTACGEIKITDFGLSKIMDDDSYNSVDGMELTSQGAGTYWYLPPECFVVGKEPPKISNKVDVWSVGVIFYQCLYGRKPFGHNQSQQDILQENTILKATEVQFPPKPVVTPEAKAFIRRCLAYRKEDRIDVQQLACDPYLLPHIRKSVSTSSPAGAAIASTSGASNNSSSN

[15] = system: RAC-gamma serine/threonine-protein kinase (Homo sapiens), Q9Y243 [S472D]; experiment: Inhibition of recombinant full-length human PKBgamma S472D mutant (117 to end residues) assessed as residual activity at 10 uM using GRPRTSSFAEGKK as substrate measured after 40 mins in presence of [gamma33P]ATP by scintillation counting method
[16] = target: Ribosomal protein S6 kinase alpha-2 (Homo sapiens) (UniProt Q15349); experiment: Inhibition of recombinant full-length human Rsk3 assessed as residual activity at 10 uM using KKKNRTLSVA as substrate measured after 40 mins in presence of [gamma33P]ATP by scintillation counting method
[17] = Toxicity in nude BALB/c mouse xenografted with human HCT116 cells assessed as change in body weight at 80 mg/kg, po administered once daily for 4 weeks measured every 3 days during compound dosing; type: organism-based; conditions: in vivo
[18] = system: Ribosomal protein S6 kinase alpha-1 (Rattus norvegicus), Q63531 [S637N,G697A]; experiment: Inhibition of recombinant full-length rat Rsk1 S637N/G697A mutant assessed as residual activity at 10 uM using KKKNRTLSVA as substrate measured after 40 mins in presence of [gamma33P]ATP by scintillation counting method
Chain of Ribosomal protein S6 kinase alpha-1 (Rattus norvegicus), Q63531 [S637N,G697A] (Q63531 whole entry S637N/G697A, the tested form may be a part): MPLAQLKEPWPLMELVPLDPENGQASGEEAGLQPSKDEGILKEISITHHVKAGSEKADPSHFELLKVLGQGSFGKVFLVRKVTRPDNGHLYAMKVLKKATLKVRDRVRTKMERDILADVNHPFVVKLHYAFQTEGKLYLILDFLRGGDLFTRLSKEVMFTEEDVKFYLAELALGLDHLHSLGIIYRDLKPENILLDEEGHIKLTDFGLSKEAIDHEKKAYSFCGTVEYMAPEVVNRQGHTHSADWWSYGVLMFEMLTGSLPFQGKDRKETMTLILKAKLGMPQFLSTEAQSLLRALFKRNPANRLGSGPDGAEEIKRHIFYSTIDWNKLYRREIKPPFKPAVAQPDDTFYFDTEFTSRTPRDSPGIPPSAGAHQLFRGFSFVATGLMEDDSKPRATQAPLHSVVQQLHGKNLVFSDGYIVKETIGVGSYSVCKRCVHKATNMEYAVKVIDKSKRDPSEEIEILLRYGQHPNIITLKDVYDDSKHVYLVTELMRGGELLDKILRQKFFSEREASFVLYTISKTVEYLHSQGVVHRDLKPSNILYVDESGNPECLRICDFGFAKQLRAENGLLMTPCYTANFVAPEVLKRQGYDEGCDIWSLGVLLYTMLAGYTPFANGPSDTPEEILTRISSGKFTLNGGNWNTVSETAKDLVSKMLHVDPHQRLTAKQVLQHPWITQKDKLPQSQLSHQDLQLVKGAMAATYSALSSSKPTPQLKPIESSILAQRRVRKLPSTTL

[19] = target: Serine/threonine-protein kinase Nek9 (Homo sapiens) (UniProt Q8TD19); experiment: Inhibition of recombinant human NEK9 (1 to 324 residues) assessed as residual activity at 10 uM using myelin basic protein as substrate measured after 40 mins in presence of [gamma33P]ATP by scintillation counting method
Chain of Serine/threonine-protein kinase Nek9 (Homo sapiens) (Q8TD19 whole entry, the tested form may be a part): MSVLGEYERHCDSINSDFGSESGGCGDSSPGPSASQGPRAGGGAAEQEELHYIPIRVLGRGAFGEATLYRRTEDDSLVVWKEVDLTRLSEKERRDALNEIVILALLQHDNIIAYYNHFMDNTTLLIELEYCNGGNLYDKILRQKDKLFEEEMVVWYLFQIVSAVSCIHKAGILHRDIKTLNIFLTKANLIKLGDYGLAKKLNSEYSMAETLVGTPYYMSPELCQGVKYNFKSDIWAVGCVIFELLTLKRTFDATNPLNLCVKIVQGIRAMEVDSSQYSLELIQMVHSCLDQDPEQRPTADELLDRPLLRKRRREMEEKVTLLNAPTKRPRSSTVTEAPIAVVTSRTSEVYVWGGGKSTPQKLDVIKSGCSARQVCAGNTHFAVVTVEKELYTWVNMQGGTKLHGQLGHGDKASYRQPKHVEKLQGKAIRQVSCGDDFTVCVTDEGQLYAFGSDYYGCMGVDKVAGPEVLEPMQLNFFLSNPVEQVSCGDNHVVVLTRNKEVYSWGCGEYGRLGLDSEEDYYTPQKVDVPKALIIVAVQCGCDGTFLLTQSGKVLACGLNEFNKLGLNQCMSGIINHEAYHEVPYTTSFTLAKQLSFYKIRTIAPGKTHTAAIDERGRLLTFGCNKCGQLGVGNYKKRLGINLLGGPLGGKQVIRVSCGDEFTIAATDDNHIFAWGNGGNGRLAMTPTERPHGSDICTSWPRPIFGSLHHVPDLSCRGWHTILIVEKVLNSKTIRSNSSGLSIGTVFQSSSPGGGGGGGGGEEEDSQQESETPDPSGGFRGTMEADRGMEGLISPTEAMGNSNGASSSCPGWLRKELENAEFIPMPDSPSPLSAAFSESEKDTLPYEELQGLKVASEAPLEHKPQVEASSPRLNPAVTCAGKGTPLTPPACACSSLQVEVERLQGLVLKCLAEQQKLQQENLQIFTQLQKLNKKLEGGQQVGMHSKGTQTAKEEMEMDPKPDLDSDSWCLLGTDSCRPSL

[20] = target: Mitogen-activated protein kinase 1 (Homo sapiens) (UniProt P28482); experiment: Inhibition of recombinant full-length human MAPK1 assessed as residual activity at 10 uM using myelin basic protein as substrate measured after 40 mins in presence of [gamma33P]ATP by scintillation counting method
[21] = target: Ribosomal protein S6 kinase alpha-5 (Homo sapiens) (UniProt O75582); experiment: Inhibition of recombinant human MSK1 (2 to end residues) assessed as residual activity at 10 uM using GRPRTSSFAEGKK as substrate measured after 40 mins in presence of [gamma33P]ATP by scintillation counting method
[22] = target: Death-associated protein kinase 1 (Homo sapiens) (UniProt P53355); experiment: Inhibition of recombinant human DAPK1 (1 to 296 residues) assessed as residual activity at 10 uM using KKLNRTLSFAEPG as substrate measured after 40 mins in presence of [gamma33P]ATP by scintillation counting method
[23] = target: Serine/threonine-protein kinase 10 (Homo sapiens) (UniProt O94804); experiment: Inhibition of recombinant human LOK (1 to 348 residues) assessed as residual activity at 10 uM using RLGRDKYKTLRQIRQ as substrate measured after 40 mins in presence of [gamma33P]ATP by scintillation counting method
[24] = target: Tyrosine-protein kinase ABL1 (Homo sapiens) (UniProt P00519); experiment: Inhibition of recombinant human ABL (27 to end residues) assessed as residual activity at 10 uM using EAIYAAPFAKKK as substrate measured after 40 mins in presence of [gamma33P]ATP by scintillation counting method

`Cc1cc(C)c(CNc2nc(Cl)nc3c2ncn3C2CCCC2)c(=O)[nH]1` gave an Activity [1] of 115%, an Activity [2] of 104% and an Activity [3] of 98.5%. For the same compound, the Activity [4] was 97%, the Activity [5] was 120% and the Activity [6] was 98.5%. For the same compound, the Activity [7] was 110%, the Activity [8] was “Non-Toxic” and the Activity [9] was 111%. The Activity [10] was 105%, the Activity [11] was 3.57% and the Activity [12] was 126%. It also gave an Activity [13] of 97%, an Activity [14] of 119% and an Activity [15] of 91%. For the same compound, the Activity [16] was 114%, the Activity [17] was “Non-Toxic” and the Activity [18] was 104%. It also gave an Activity [19] of 102%, an Activity [20] of 97.5% and an Activity [21] of 112%. The Activity [22] was 114%, the Activity [23] was 91.5% and the Activity [24] was 108%.
